Results: patent publication US7524860B2, “Antibacterial agents” (Pfizer Inc., priority 2004, dated 2009)
Values after ≈ are worked out from the molar mass of the structure shown. Like-named read-outs stand apart in the source and are kept apart here.

Key:
[1] = system: Neisseria gonorrhoeae, GC525 (NG-2888); assay: in-vitro antibacterial activity, microbroth dilution MIC susceptibility testing; assay type: cell-based; set-up: unit: ug/mL; conditions: microbroth dilution in gonococcal broth, 20-24 hours at 35 C, lowest concentration preventing visible growth
Summary of the method: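 Broth microdilution in gonococcal broth, inoculum ~5×10^5 cfu/mL, 20-24 h at 35 C in humidified CO2; compounds from 2 mg/mL DMSO stocks over 64-0.06 and 1-0.001 ug/mL two-fold series. MIC is the lowest concentration preventing visible growth, read visually; duplicates differing one well give the lower value, two wells the middle value.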

[2] = Neisseria gonorrhoeae, read-out: MIC

Row | Compound | MIC [1, 2] [µg/mL] | melting point [°C] | MIC [1] [µg/mL]
1 | CCNC(=O)Nc1nc2cc(-c3cccnc3)ccn2n1 [Example 1, 1-Ethyl-3-(7-pyridin-3-yl-[1,2,4]triazolo[1,5-a]pyridin-2-yl)-urea] | 32 (≈ 113 µM) | 230 to 233 | –
2 | CCNC(=O)Nc1nc2cc(-c3ccc(OC)nc3)ccn2n1 [Example 2, 1-Ethyl-3-[7-(6-methoxy-pyridin-3-yl)-[1,2,4]triazolo[1,5-a]pyridin-2-yl]-urea] | > 64 | 230 to 233 | –
3 | CCNC(=O)Nc1nc2cc(-c3cnc(OC)nc3)ccn2n1 [Example 3, 1-Ethyl-3-[7-(2-methoxy-pyrimidin-5-yl)-[1,2,4]triazolo[1,5-a]pyridin-2-yl]-urea] | > 64 | 243 to 248 | –
4 | CCNC(=O)Nc1nc2cc(-c3cccnc3)cc(C(=O)OC)n2n1 [Example 6, 2-(3-Ethyl-ureido)-7-pyridin-3-yl-[1,2,4]triazolo[1,5-a]pyridine-5-carboxylic acid methyl ester] | 16 (≈ 47 µM) | 211 to 213 | –
5 | CCNC(=O)Nc1nc2cc(-c3cccnc3)cc(C(=O)NC)n2n1 [Example 7, 2-(3-Ethyl-ureido)-7-pyridin-3-yl-[1,2,4]triazolo[1,5-a]pyridine-5-carboxylic acid methylamide] | 2 (≈ 5.89 µM) | > 300 | –
6 | CCNC(=O)Nc1nc2cc(-c3cccnc3)cc(C(=O)OCC)n2n1 [Example 16, 2-(3-ethyl-ureido)-7-pyridin-3-yl-[1,2,4]triazolo[1,5-a]pyridine-5-carboxylic acid ethyl ester] | – | 242 to 245 | –
7 | CCNC(=O)Nc1nc2cc(-c3cccnc3)cc(-c3nc(C)no3)n2n1 [Example 18, 1-Ethyl-3-[5-(3-methyl-[1,2,4]oxadiazol-5-yl)-7-pyridin-3-yl-[1,2,4]triazolo[1,5-a]pyridin-2-yl]-urea] | – | 298 to 301 | –
8 | CCNC(=O)Nc1nc2cc(-c3cccnc3)cc(N3CCNCC3)n2n1 [Example 146, 1-Ethyl-3-(5-piperazin-1-yl-7-pyridin-3-yl-[1,2,4]triazolo[1,5-a]pyridin-2-yl)-urea] | 32 (≈ 87.3 µM) | – | –
9 | CCNC(=O)c1cc(-c2cccnc2)cc2nc(NS(C)(=O)=O)nn12 [Example 147, 2-N-Methylsulfonylamino-7-pyridin-3-yl-[1,2,4]triazolo[1,5-a]pyridin-5-carboxylic acid ethyl amide] | – | – | 4.00 (≈ 11.1 µM)
10 | CCNC(=O)Nc1nc2cc(-c3cccnc3)cc(-c3oc(C)nc3C)n2n1 [Example 148, N-[5-(2,4-Dimethyl-1,3-oxazol-5-yl)-7-pyridin-3-yl[1,2,4]triazolo[1,5-a]pyridin-2-yl]-N′-ethylurea] | 4 (≈ 10.6 µM) | – | –
11 | CCNC(=O)Nc1nc2cc(-c3ccc(OC)nc3)cc(-c3cnc(C)o3)n2n1 [Example 149, 1-Ethyl-3-[7-(6-methoxy-pyridin-3-yl)-5-(2-methyl-oxazol-5-yl)-[1,2,4]triazolo[1,5-a]pyridin-2-yl]-urea] | 16 (≈ 40.7 µM) | – | –
12 | CCNC(=O)Nc1nc2cc(-c3cccnc3)cc(N(C)C3CCN(C)C3)n2n1 (centres unmarked) [Example 150, 1-Ethyl-3-(5-[methyl-(1-methyl-pyrrolidin-3-yl)-amino]-7-pyridin-3-yl-[1,2,4]triazolo[1,5-a]pyridin-2-yl)-urea] | 32 (≈ 81.1 µM) | – | –
13 | CCNC(=O)c1cc(-c2cccnc2)cc2nc(NS(=O)(=O)CC)nn12 [Example 151, 2-N-ethylsulfonylamino-7-pyridin-3-yl-[1,2,4]triazolo[1,5-a]pyridin-5-carboxylic acid ethyl amide] | – | – | 32.0 (≈ 85.5 µM)
14 | CCNC(=O)Nc1nc2cc(-c3cccnc3)cc(NC3CCN(C)CC3)n2n1 [Example 152, 1-Ethyl-3-[5-(1-methyl-piperidin-4-ylamino)-7-pyridin-3-yl[1,2,4]triazolo[1,5-a]pyridin-2-yl]-urea] | 8 (≈ 20.3 µM) | – | –
15 | N-Methyl-N′-[5-(3-methylpyridin-2-yl)-7-pyridin-3-yl[1,2,4]triazolo[1,5-a]pyridin-2-yl]urea [Example 145] | – | – | 16.0
